Experimental findings from patent US8278480B2, “Salts, aqueous liquid compositions containing salts of S-(+)-abscisic acid and methods of their preparation” (Valent BioSciences Corporation, priority 2008, dated 2012) are described below.

Holding throughout (assay type): in vivo, Tomato (variety: Rutgers)
Series [1] relates to tomato leaf transpiration. As to the kind of experiment: Tomato leaf transpiration inhibition after foliar spray (LI-1600 porometer). To be noted: for Transpiration rate (% of control), 1 day after treatment: day 1; for Transpiration rate (% of control), 2 days after treatment: day 2; for Transpiration rate (% of control), 3 days after treatment: day 3; for Transpiration rate (% of control), 4 days after treatment: day 4; for Transpiration rate (% of control), 7 days after treatment: day 7; for ABA dose to achieve 50% inhibition of transpiration: from linear regression of 3-day average transpiration rate on log dose; for Relative potency compared to the ammonium salt composition of Comparative Example 11: reciprocal of ratio of doses for 50% transpiration inhibition. As to the method: (§1) Preparation of plant specimens for use in the treatment studies of the EXAMPLES that follow was carried out as follows. Tomato (variety: Rutgers) seeds were sown in an 18-cell flat filled with Promix PGX (available from Premier Horticulture Inc., Quakertown Pa.) and grown for 3 weeks to allow for germination and initial growth. Plants were then transplanted into pots (18 cm in diameter and 18 cm in height), filled with Promix BX (available from Premier Horticulture Inc., Quakertown Pa.), and grown for one or two more weeks before treatment, depending on temperature and available light. Plants received daily irrigation and weekly fertilizer (1 g/L all purpose fertilizer 20-20-20, available from The Scotts Company, Marysville, Ohio).
(§2) All treatment solutions were made up with distilled water. The (S)-(+)-abscisic acid (95% active ingredient) is available from Lomon BioTechnology Co., Ltd. (Shichuan, China). The prior art aqueous solution composition of the ammonium salt of (S)-(+)-abscisic acid as prepared in Example 11 above was used as a positive treatment control for most of the studies.
(§3) All experiments were conducted using a randomized complete block experimental design. Solutions of (S)-(+)-abscisic acid and blank treatments (plain water) were applied by spray to the aerial parts of the tomato plants at the rate of 24 mL per 6 plants. Plants were then placed in a transparent chamber with humidity controlled within the range of 40 to 60% relative humidity. Leaf transpiration rates were measured at 1, 2, 3, 4 and 7 days after treatment. Measurements were conducted using a LI-1600 Steady State Porometer (LI-Cor, Lincoln, Nebr.). Each day the transpiration rate of the plants of each treatment group was normalized to a percentage of the transpiration rate of untreated plants (plants sprayed with water only) in order to control for day-to-day variability in plant status caused by changes of environmental conditions such as light intensity and temperature. Data for each plant was also averaged over a 3-day period to balance the short term and long term effect of (S)-(+)-abscisic acid on tomato leaf transpiration as well as to reduce experimental variability.
The regression equation of each (S)-(+)-abscisic acid salt as well as abscisic acid concentrations for 50% inhibition of transpiration were calculated. The relative potency of two ABA salts is the reciprocal of the ratio of (S)-(+)-abscisic acid concentration required for 50% transpiration inhibition for each composition.

Another series concerns tomato plants. The series can be described thus: Phytotoxicity observed on treated tomato plants. Particulars: tomato plants after foliar spray. As to the method: as §3, with “variability. It is important to note that no phytotoxicity was observed on any of the plants treated with the compositions of the present invention.” for “variability.”
The subject of series [2] is tomato shoot fresh weight. The series can be described thus: Tomato shoot fresh weight 7 days after treatment (growth suppression). Particulars: foliar spray. The method, then: as §1, §2, §3
In this experiment, the fresh weights of the aerial parts of the tomato plants were also measured at the end of the experiment, 7 days after treatments were applied, in order to assess the relative growth suppressing activity of the compositions.

In a further series the test system is tomato plant height. The series can be described thus: Tomato plant height 7 days after treatment (growth suppression). Particulars: foliar spray. As to the method: as §1, §2
as §3, with “variability. It is important to note that no phytotoxicity was observed on any of the plants treated with the compositions of the present invention.” for “variability.”
In this experiment, the fresh weights of the aerial parts of the tomato plants and their heights were also measured at the end of the experiment, 7 days after treatments were applied, in order to assess the relative growth suppressing activity of the compositions.

The mark [3] stands for this setting: (S)-(+)-abscisic acid dose 0.3 mg, foliar spray.
The mark [4] stands for this setting: (S)-(+)-abscisic acid dose 1 mg, foliar spray.
[5] abbreviates: (S)-(+)-abscisic acid dose 3 mg, foliar spray.
[6] abbreviates: (S)-(+)-abscisic acid dose 10 mg, foliar spray.
Where [7] appears, read: foliar spray, 250 ppm (S)-(+)-abscisic acid (1 mg), additives as in label.
The mark [8] stands for this setting: 75 ppm (0.3 mg) (S)-(+)-abscisic acid.
Setting [9] is: 250 ppm (1 mg) (S)-(+)-abscisic acid, additives as in label.
The mark [10] stands for this setting: 750 ppm (3 mg) (S)-(+)-abscisic acid.
[11] abbreviates: 2500 ppm (10 mg) (S)-(+)-abscisic acid.

Values joined by “and” are separate entries in the source; they are usually repeats but may differ in a detail not shown here. Identical values can stand only once. Counter-ions that a name gives are not always drawn.

`CC1=CC(=O)CC(C)(C)[C@@]1(O)/C=C/C(C)=C\C(=O)[O-].[Rb+]` [Example 1, Rubidium Salt of (S)-(+)-Abscisic Acid]: the “Transpiration rate (% of control), Average of 3 days after treatment” value in series [1] (setting [3]) is 77 % of control; in series [1] (setting [4]), 67 % of control; in series [1] (setting [5]) it was 54 % of control; in series [1] (setting [6]), 39 % of control. For the same compound, the “Transpiration rate (% of control), 7-Day Average” value in series [1] (setting [7]) is reported as 75.9 % of control. For the same compound, the “Transpiration rate (% of control), 1 day after treatment” value in series [1] (setting [7]) is 55.8 % of control. Also, the “Transpiration rate (% of control), 2 days after treatment” value in series [1] (setting [7]) is listed as 68.0 % of control. In addition, the “Transpiration rate (% of control), 3 days after treatment” value in series [1] (setting [7]) was 76.5 % of control. For the same compound, in series [1] (setting [7]), the “Transpiration rate (% of control), 4 days after treatment” value is reported as 88.2 % of control. Further, the “Transpiration rate (% of control), 7 days after treatment” value in series [1] (setting [7]) was 91.0 % of control. For the same compound, in series [1], the “ABA dose to achieve 50% inhibition of transpiration” value (“ABA dose to achieve 50% inhibition” below) came to 4.05 mg. Also, the “Relative potency compared to the ammonium salt composition of Comparative Example 11” value in series [1] is on record as 2.4 times. In the series with tomato plants, the Phytotoxicity entry is recorded as “without producing phytotoxicity”. Further, the “Fresh weight (g) 7 days after treatment” value in series [2] (setting [8]) came out at 18.6 g; in series [2] (setting [9]) it was 18.1 g; in series [2] (setting [10]) it was 17.2 g; in series [2] (setting [11]) it was 16.4 g.

As for `CC1=CC(=O)CC(C)(C)[C@@]1(O)/C=C/C(C)=C\C(=O)[O-].[Cs+]` [Example 2, Cesium Salt of (S)-(+)-Abscisic Acid], the “Transpiration rate (% of control), Average of 3 days after treatment” value in series [1] (setting [3]) is recorded as 72 % of control. Besides, in series [1] (setting [4]), the “Transpiration rate (% of control), Average of 3 days after treatment” value is 57 % of control. Also, the “Transpiration rate (% of control), Average of 3 days after treatment” value in series [1] (setting [5]) was 47 % of control. Besides, the “Transpiration rate (% of control), Average of 3 days after treatment” value in series [1] (setting [6]) is listed as 37 % of control. Besides, in series [1] (setting [7]), the “Transpiration rate (% of control), 7-Day Average” value is on record as 67.8 % of control; the “Transpiration rate (% of control), 1 day after treatment” value was 47.1 % of control; the “Transpiration rate (% of control), 2 days after treatment” value is given as 59.0 % of control; the “Transpiration rate (% of control), 3 days after treatment” value was 63.9 % of control. Also, in series [1] (setting [7]), the “Transpiration rate (% of control), 4 days after treatment” value is on record as 77.8 % of control and the “Transpiration rate (% of control), 7 days after treatment” value was 91.1 % of control. Moreover, in series [1], the “ABA dose to achieve 50% inhibition” value was determined as 2.41 mg; the “Relative potency compared to the ammonium salt composition of Comparative Example 11” value is 3.2 times and 2.8 times. Besides, the Phytotoxicity entry in the series with tomato plants is recorded as “without producing phytotoxicity”. Also, the “Fresh weight (g) 7 days after treatment” value in series [2] (setting [8]) is 16.2 g. Besides, the “Fresh weight (g) 7 days after treatment” value in series [2] (setting [9]) is reported as 15.3 g. For the same compound, the “Fresh weight (g) 7 days after treatment” value in series [2] (setting [10]) is reported as 14.7 g. Besides, the “Fresh weight (g) 7 days after treatment” value in series [2] (setting [11]) amounted to 11.3 g.

Take `CC1=CC(=O)CC(C)(C)[C@@]1(O)/C=C/C(C)=C\C(=O)O.CN(C)C(=N)N(C)C` [Example 6, Tetramethylguanidinium Salt of (S)-(+)-Abscisic Acid]: the “Transpiration rate (% of control), Average of 3 days after treatment” value in series [1] (setting [3]) is 71 % of control. Moreover, the “Transpiration rate (% of control), Average of 3 days after treatment” value in series [1] (setting [4]) is recorded as 61 % of control. For the same compound, the “Transpiration rate (% of control), Average of 3 days after treatment” value in series [1] (setting [5]) is given as 42 % of control. For the same compound, in series [1] (setting [6]), the “Transpiration rate (% of control), Average of 3 days after treatment” value is on record as 31 % of control. In series [1] (setting [7]), the “Transpiration rate (% of control), 7-Day Average” value is 70.8 % of control and 76.2 % of control and 78.7 % of control; the “Transpiration rate (% of control), 1 day after treatment” value is 51.0 % of control and 51.9 % of control and 47.8 % of control; the “Transpiration rate (% of control), 2 days after treatment” value is 61.3 % of control and 64.3 % of control and 69.0 % of control; the “Transpiration rate (% of control), 3 days after treatment” value was 71.2 % of control and 75.6 % of control and 84.5 % of control. Moreover, in series [1] (setting [7]), the “Transpiration rate (% of control), 4 days after treatment” value was 79.9 % of control and 89.9 % of control and 93.2 % of control; the “Transpiration rate (% of control), 7 days after treatment” value was 90.3 % of control and 99.1 % of control and 99.0 % of control. Moreover, the “ABA dose to achieve 50% inhibition” value in series [1] is listed as 1.93 mg. Besides, the “Plant height (cm) 7 days after treatment” value with tomato plant height (setting [9]) is 30.1 cm.

For `CC1=CC(=O)CC(C)(C)[C@@]1(O)/C=C/C(C)=C\C(=O)O` [Example 11, Ammonium Salt of (S)-(+)-Abscisic Acid, reference compound], the “Transpiration rate (% of control), Average of 3 days after treatment” value in series [1] (setting [3]) is 82 % of control and 80 % of control and 77 % of control and 95 % of control and 90 % of control and 81 % of control and 88 % of control; in series [1] (setting [4]) it was 72 % of control and 69 % of control and 65 % of control and 78 % of control and 70 % of control and 77 % of control and 71 % of control; in series [1] (setting [5]), 60 % of control and 58 % of control and 55 % of control and 67 % of control and 59 % of control and 62 % of control and 57 % of control; in series [1] (setting [6]), 50 % of control and 48 % of control and 44 % of control and 53 % of control and 51 % of control and 52 % of control and 55 % of control and 49 % of control. In addition, the “Transpiration rate (% of control), 4 Day Average” value in series [1] (foliar spray, 250 ppm (S)-(+)-abscisic acid (1 mg), additives as in label, 4-day average) is reported as 75.4 % of control. Further, in series [1] (foliar spray, 250 ppm (S)-(+)-abscisic acid (1 mg), additives as in label, 9-day average), the “Transpiration rate (% of control), 9-Day Average” value was 87.3 % of control. Also, the “Transpiration rate (% of control), 9 days after treatment” value in series [1] (foliar spray, 250 ppm (S)-(+)-abscisic acid (1 mg), additives as in label, day 9) is recorded as 100.8 % of control. Also, the “Plant height (cm) 7 days after treatment” value in the series with tomato plant height (setting [8]) is 19.9 cm; with tomato plant height (setting [9]), 19.8 cm and 32.1 cm; in the series on tomato plant height (setting [10]) it was 18.6 cm; in the series with tomato plant height (setting [11]), 18.6 cm.
